Experimental data published in patent US20120122924A1, “NAMPT INHIBITORS” (ABBOTT LABORATORIES, priority 2010, published 2012).

Target: recombinant, human, C-terminally-His tagged NAMPT (Homo sapiens, UniProt P43490)
Assay: Time-Resolved Fluorescence Resonance Energy Transfer (TR-FRET) binding assay of NAMPT
Conditions: 6.8 nM NAMPT, 200 nM probe (Oregon Green 488-conjugated APO866), 1 nM Tb-anti-His antibody, 2-3 hours
Method: Determination of the utility of compounds having Formula (I) as binders to and inhibitors of NAMPT was performed using a Time-Resolved Fluorescence Resonance Energy Transfer (TR-FRET) binding assay.
Time-Resolved Fluorescence Resonance Energy Transfer (TR-FRET) Binding Assay of NAMPT
The assay was carried out in 18 uL low volume plates (Owens Corning) in reaction buffer (50 mM HEPES (NaOH), pH 7.5, 100 mM NaCl, 10 mM MgCl2, 1 mM DTT, 1% Glycerol) using 6.8 nM recombinant, human, C-terminally-His tagged NAMPT, 1 nM Tb-anti-His antibody (Invitrogen, Cat # PV5895), and 200 nM probe (Oregon Green 488-conjugated APO866; A-1251667.0). Plates were covered, and reactions were carried out for 2-3 hours. Plates were read with Envision (Laser Lantha low volume protocol) after 2 to 3 hours. Excitation was carried out at 337 nm, and the ratio of emission of Oregon Green (520 nm) to terbium (492 nm) was determined and used to calculate IC50 values of test compounds.

recombinant, human, C-terminally-His tagged NAMPT, sequence (P43490 whole entry): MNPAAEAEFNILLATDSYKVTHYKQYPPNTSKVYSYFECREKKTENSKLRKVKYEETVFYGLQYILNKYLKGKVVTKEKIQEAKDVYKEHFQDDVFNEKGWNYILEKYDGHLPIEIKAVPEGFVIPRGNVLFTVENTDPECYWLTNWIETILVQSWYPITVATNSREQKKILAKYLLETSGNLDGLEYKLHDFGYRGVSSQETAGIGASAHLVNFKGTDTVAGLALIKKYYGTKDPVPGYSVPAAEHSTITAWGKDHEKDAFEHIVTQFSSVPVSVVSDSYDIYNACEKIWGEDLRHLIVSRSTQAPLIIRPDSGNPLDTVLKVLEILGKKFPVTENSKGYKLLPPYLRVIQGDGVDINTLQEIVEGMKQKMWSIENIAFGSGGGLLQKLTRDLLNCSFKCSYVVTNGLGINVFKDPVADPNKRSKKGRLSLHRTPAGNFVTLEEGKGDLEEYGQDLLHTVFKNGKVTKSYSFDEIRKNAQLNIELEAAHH

Row | IC50 | SMILES
1 | 109 nM | CCC(C)(C)C(=O)Nc1ccc(NC(=O)N2CCc3ccccc3C2)cc1 [Example 70, N-{4-[(2,2-dimethylbutanoyl)amino]phenyl}-3,4-dihydroisoquinoline-2(1H)-carboxamide]
2 | 20.2 nM | CC(C)CC(=O)N1CC=C(c2ccc(NC(=O)N3CCc4ccccc4C3)cc2)CC1 [Example 47, N-{4-[1-(3-methylbutanoyl)-1,2,3,6-tetrahydropyridin-4-yl]phenyl}-3,4-dihydroisoquinoline-2(1H)-carboxamide]
3 | 74.9 nM | CC(C)CS(=O)(=O)N1CC=C(c2ccc(NC(=O)N3CCc4ccccc4C3)cc2)CC1 [Example 51, N-{4-[1-(isobutylsulfonyl)-1,2,3,6-tetrahydropyridin-4-yl]phenyl}-3,4-dihydroisoquinoline-2(1H)-carboxamide]
4 | 45.2 nM | O=C(NCCc1cccs1)c1ccc(NC(=O)N2CCc3cnccc3C2)cc1 [Example 12, N-(4-{[2-(2-thienyl)ethyl]carbamoyl}phenyl)-3,4-dihydro-2,6-naphthyridine-2(1H)-carboxamide]
5 | 116 nM | O=C(Nc1ccc(NC(=O)N2CCc3ccccc3C2)cc1)c1cncs1 [Example 87, N-{4-[(1,3-thiazol-5-ylcarbonyl)amino]phenyl}-3,4-dihydroisoquinoline-2(1H)-carboxamide]
6 | 435 nM | CC(C)CCN1CC=C(c2ccc(NC(=O)N3CCc4ccccc4C3)cc2)CC1 [Example 55, N-{4-[1-(3-methylbutyl)-1,2,3,6-tetrahydropyridin-4-yl]phenyl}-3,4-dihydroisoquinoline-2(1H)-carboxamide]
7 | 248 nM | O=C(NCCCc1ccccc1)c1ccc(NC(=O)N2CCc3ccc(F)cc3C2)cc1 [Example 20, 7-fluoro-N-{4-[(3-phenylpropyl)carbamoyl]phenyl}-3,4-dihydroisoquinoline-2(1H)-carboxamide]
8 | 23.7 nM | O=C(NCc1ccccc1)c1ccc(NC(=O)N2CCc3ccccc3C2)cc1 [Example 8, N-[4-(benzylcarbamoyl)phenyl]-3,4-dihydroisoquinoline-2(1H)-carboxamide]
9 | 171 nM | CC(C)CCNC(=O)c1ccc(NC(=O)N2CCc3ccc(F)cc3C2)cc1 [Example 16, 7-fluoro-N-{4-[(3-methylbutyl)carbamoyl]phenyl}-3,4-dihydroisoquinoline-2(1H)-carboxamide]
10 | 1470 nM | CC(C)C(=O)NCCc1ccc(NC(=O)N2CCc3ccccc3C2)cc1 [Example 62, N-{4-[2-(isobutyrylamino)ethyl]phenyl}-3,4-dihydroisoquinoline-2(1H)-carboxamide]
11 | 1290 nM | Cn1cc(-c2ccc(NC(=O)N3CCc4ccccc4C3)cc2)cn1 [Example 42, N-[4-(1-methyl-1H-pyrazol-4-yl)phenyl]-3,4-dihydroisoquinoline-2(1H)-carboxamide]
12 | 69.2 nM | O=C(CN1CCOCC1)Nc1ccc(NC(=O)N2CCc3ccccc3C2)cc1 [Example 94, N-{4-[(morpholin-4-ylacetyl)amino]phenyl}-3,4-dihydroisoquinoline-2(1H)-carboxamide]
13 | 611 nM | O=C(Nc1ccc(/C=C/CCCc2ccccc2)cc1)N1CCc2ccccc2C1 [Example 39, N-{4-[(1E)-5-phenylpent-1-en-1-yl]phenyl}-3,4-dihydroisoquinoline-2(1H)-carboxamide]
14 | 45.8 nM | O=C(NCCc1cccs1)c1ccc(NC(=O)N2CCc3cc(F)ccc3C2)cc1 [Example 13, 6-fluoro-N-(4-{[2-(2-thienyl)ethyl]carbamoyl}phenyl)-3,4-dihydroisoquinoline-2(1H)-carboxamide]
15 | 49 nM | Nc1ccc(CCC(=O)Nc2ccc(NC(=O)N3CCc4ccccc4C3)cc2)cc1 [Example 82, N-(4-{[3-(4-aminophenyl)propanoyl]amino}phenyl)-3,4-dihydroisoquinoline-2(1H)-carboxamide]
16 | 58.6 nM | CC(=O)N1CC=C(c2ccc(NC(=O)N3CCc4ccccc4C3)cc2)CC1 [Example 50, N-[4-(1-acetyl-1,2,3,6-tetrahydropyridin-4-yl)phenyl]-3,4-dihydroisoquinoline-2(1H)-carboxamide]
17 | 189 nM | CCCc1nc(-c2ccc(NC(=O)N3CCc4ccccc4C3)cc2)no1 [Example 56, N-[4-(5-propyl-1,2,4-oxadiazol-3-yl)phenyl]-3,4-dihydroisoquinoline-2(1H)-carboxamide]
18 | 33.2 nM | O=C(CCC(F)(F)F)Nc1ccc(NC(=O)N2CCc3ccccc3C2)cc1 [Example 73, N-{4-[(4,4,4-trifluorobutanoyl)amino]phenyl}-3,4-dihydroisoquinoline-2(1H)-carboxamide]
19 | 16.7 nM | CC(C)CCNC(=O)c1ccc(NC(=O)N2CCc3ccccc3C2)cc1 [Example 1, N-{4-[(3-methylbutyl)carbamoyl]phenyl}-3,4-dihydroisoquinoline-2(1H)-carboxamide]
20 | 10.1 nM | O=C(Nc1ccc(C2=CCN(C(=O)c3ccccc3)CC2)cc1)N1CCc2ccccc2C1 [Example 43, N-[4-(1-benzoyl-1,2,3,6-tetrahydropyridin-4-yl)phenyl]-3,4-dihydroisoquinoline-2(1H)-carboxamide]
21 | 158 nM | O=C(CCN1CCOCC1)Nc1ccc(NC(=O)N2CCc3ccccc3C2)cc1 [Example 95, N-(4-{[3-(morpholin-4-yl)propanoyl]amino}phenyl)-3,4-dihydroisoquinoline-2(1H)-carboxamide]
22 | 40.4 nM | O=C(CCc1cccs1)Nc1ccc(NC(=O)N2CCc3ccccc3C2)cc1 [Example 33, N-(4-{[3-(2-thienyl)propanoyl]amino}phenyl)-3,4-dihydroisoquinoline-2(1H)-carboxamide]
23 | 97.6 nM | O=C(NCCc1ccccc1)c1ccc(NC(=O)N2CCc3ccccc3C2)cc1 [Example 15, N-{4-[(2-phenylethyl)carbamoyl]phenyl}-3,4-dihydroisoquinoline-2(1H)-carboxamide]
24 | 10.3 nM | CC(C)CCNC(=O)c1ccc(NC(=O)N2CCc3cc(F)ccc3C2)cc1 [Example 6, 6-fluoro-N-{4-[(3-methylbutyl)carbamoyl]phenyl}-3,4-dihydroisoquinoline-2(1H)-carboxamide]
25 | 286 nM | O=C(NCCCc1ccccc1)c1ccc(NC(=O)N2CCc3ccccc3C2)cn1 [Example 21, N-{6-[(3-phenylpropyl)carbamoyl]pyridin-3-yl}-3,4-dihydroisoquinoline-2(1H)-carboxamide]
26 | 16.8 nM | CCCCCCC(=O)Nc1ccc(NC(=O)N2CCc3ccccc3C2)cc1 [Example 72, N-[4-(heptanoylamino)phenyl]-3,4-dihydroisoquinoline-2(1H)-carboxamide]
27 | 819 nM | O=C(Nc1ccc(-c2cnn(CCO)c2)cc1)N1CCc2ccccc2C1 [Example 41, N-{4-[1-(2-hydroxyethyl)-1H-pyrazol-4-yl]phenyl}-3,4-dihydroisoquinoline-2(1H)-carboxamide]
28 | 5.16 nM | O=C(CC1CCCC1)Nc1ccc(NC(=O)N2CCc3ccccc3C2)cc1 [Example 77, N-{4-[(cyclopentylacetyl)amino]phenyl}-3,4-dihydroisoquinoline-2(1H)-carboxamide]
29 | 1490 nM | O=C(Nc1ccc(C(F)(F)F)cc1)N1CCc2ccccc2C1 [Example 97, N-[4-(trifluoromethyl)phenyl]-3,4-dihydroisoquinoline-2(1H)-carboxamide]
